Values of other authors, collected in patent US20130183261A1, “METHOD AND COMPOSITION FOR DELIVERING ACTIVE INGREDIENT INTO AIR, AND USE THEREOF” (priority 2010, published 2013).

Details: at 25° C.; neat solvent

Viscosity: 11.4 mPa·s
Compound: CCCOC(C)COC(C)CO (stereo not shown) [DPnP, dipropylene glycol n-propyl ether]
